{"source": "patent US20230302022A1", "about": "“PREVENTING OR MITIGATING CHEMOTHERAPY INDUCED ALOPECIA USING VITAMIN D” (priority 2016, published 2023)", "key": {"[1]": {"tested_on": "MCF-7 (breast cancer with p53 mutation)", "experiment": "Cell growth / viability assay, MCF-7", "format": "cell-based", "procedure": "The drug treatment period was usually three days. At the end of the three days, the background OD of the 96-well plate was read at 280 nm, before 20 μL of the “Substrate Cell Titer 96 Aqueous One Solution Reagent” (Promega) was added to each well. The plate was returned to the 37° C. incubator, and its OD at 490 nm was read each hour until an OD of approximately 1.5 was reached. The net OD increase was calculated by subtracting the pre-substrate OD reading.\nThe impact of the drug on the cells was calculated by comparing the OD at different concentrations in relation to the OD of the control wells (without the drug).\nThen these pretreated cells were utilized to set up the cell based assay."}, "Long Evans rats": {"tested_on": "Long Evans rats", "experiment": "CIA in chloroleukemic Long Evans rats receiving multi-course chemotherapy", "format": "in vivo, rat", "set-up": "protection from CIA: concentration or dose not given beside the values", "settings": "for protection from CIA: both cycles"}, "Sprague Dawley rats": {"tested_on": "Sprague Dawley rats", "experiment": "Cyclophosphamide-induced alopecia in neonatal Sprague Dawley rats, 1,25(OH)2D3 in ethanol", "format": "in vivo, rat", "settings": "0.2 μg 1,25(OH)2D3 in 150 μL ethanol daily day 5-10, all animals", "procedure": "Neonatal Rat model and PCA model. Sprague Dawley rats were purchased from Charles River Laboratories (Wilmington, MA). C3H/HeJ mouse were purchased from Jackson Laboratories (Bar Harbour, ME). Rodents were housed and fed according to NIH guidelines. […] Uskokovic (Hoffman-La Roche, Nutley, NJ). For experiments involving C3H/HeJ mice, 1,25(OH)2D3 was purchased from Sigma (St. Louis, M0). Topical application of 1,25(OH)2D3. 1,25(OH)2D3 was dissolved in absolute ethanol and applied topically with an applicator. Control animals were similarly treated with vehicle only. Animals were then isolated for a period of 3 hours following which the treated area was washed with soap and water and dried. For CIA experiments, 1,25(OH)2D3 was given daily beginning on day 5 after birth and ending on day 10. […] For CIA and PCA, the experimental group was treated with 0.2 μg of 1,25(OH)2D3 in 150 μL of absolute ethanol applied topically over the head and neck. In both instances, the control group received ethanol vehicle only. […] Both chemotherapies were started at 11 days of age. Alopecia was recorded on the tenth day after the first dose of chemotherapy. […] Rats were randomized into two groups of ten rats each. One group received vehicle control, while the other received 0.2 μg 1,25(OH)2D3. […] Animals were observed until complete hair regrowth was obtained."}, "patients": {"tested_on": "patients", "experiment": "Phase I study: chemotherapy-induced alopecia in patients", "format": "in vivo, human", "settings": "patients at all dose levels, weeks 7 and 15 vs baseline", "excerpt": "Photographic assessment will be performed using a Canon Power Shot G12 camera system to ensure standardization and uniformity among all enrolled patients. The following five views will be obtained at each photographic assessment: bilateral sides of head/scalp view, front of head/face view, back of head/scalp view, and top of head/scalp view. Additionally, close-up photographs will be taken at the same times points. […] Photographs will be standardized for lighting, camera angle, and position to the participants head. These assessments will be performed at the following time points: at baseline, weeks 7, 15, 27, and 54. Photographs for patients in each cohort representing baseline, and treatment weeks 7 and 15 will be presented blind to the study principle investigator after at least 3 patients have completed 15 weeks of treatment. Photographs will also be taken at week 27 and week 54 of the study but will be included in the final photographic assessment as secondary information. […]\nSubjective record of hair and scalp. Alopecia will also be subjectively recorded through the patient self-reported diaries. […]\nEach patient underwent PK analysis, adverse event monitoring, patient self-assessment diaries (1-10 scale), and blinded photographic assessments. […] Toxicity was determined on a weekly basis during Cycle 1 (i.e., the first 28 days of topical agent application) and subsequently every four weeks. […]"}}}
{"smiles": "C=C1/C(=C\\C=C2/CCC[C@]3(C)[C@@H]([C@H](C)CCCC(C)(C)O)CC[C@@H]23)C[C@@H](O)C[C@@H]1O", "note": "[Calcitriol, (5Z,7E)-9,10-secocholesta-5,7.10(19Hriene-1 a,33.25-triol]", "values": [{"measurement": "effect of calcitriol on the cytotoxic effect of Doxorubicin", "setting": "[1]; MCF-7", "value": "did not appear to appreciably alter"}, {"measurement": "response to doxorubicin, cisplatin and erlotinib after calcitriol exposure", "setting": "[1]; MCF-7, 0.1 μg/mL calcitriol for two passages", "value": "did not alter"}, {"measurement": "ALOPECIA 0 (number of rats)", "setting": "Long Evans rats; ADM, Paclitaxel and Etoposide, after First Round", "value": 40}, {"measurement": "ALOPECIA 0 (number of rats)", "setting": "Long Evans rats; ADM, Paclitaxel and Etoposide, after Second Round", "value": 32}, {"measurement": "ALOPECIA 0 (number of rats)", "setting": "Long Evans rats; CTX and Doxorubicin (ADM), after First Round", "value": 40}, {"measurement": "ALOPECIA 0 (number of rats)", "setting": "Long Evans rats; CTX and Doxorubicin (ADM), after Second Round", "value": 20}, {"measurement": "ALOPECIA 0 (number of rats)", "setting": "Long Evans rats; CTX, ADM and Cytarabine (ARA-C), after First Round", "value": 40}, {"measurement": "ALOPECIA 0 (number of rats)", "setting": "Long Evans rats; CTX, ADM and Cytarabine (ARA-C), after Second Round", "value": 31}, {"measurement": "ALOPECIA 0 (number of rats)", "setting": "Long Evans rats; CTX, Paclitaxel and Etoposide, after First Round", "value": 40}, {"measurement": "ALOPECIA 0 (number of rats)", "setting": "Long Evans rats; CTX, Paclitaxel and Etoposide, after Second Round", "value": 33}, {"measurement": "ALOPECIA 0 (number of rats)", "setting": "Long Evans rats; Cyclophosphamide (CTX), after First Round of Chemotherapy", "value": 40}, {"measurement": "ALOPECIA 0 (number of rats)", "setting": "Long Evans rats; Cyclophosphamide (CTX), after Second Round of Chemotherapy", "value": 10}, {"measurement": "protection from CIA", "setting": "Long Evans rats; cyclophosphamide and doxorubicin group", "value": 100, "unit": "%"}, {"measurement": "extent of alopecia (grade), all rats", "setting": "Long Evans rats; cyclophosphamide and doxorubicin regimen, after the first round", "value": "did not exhibit any signs of alopecia"}, {"measurement": "protection from CIA", "setting": "Long Evans rats; cyclophosphamide group", "value": 100, "unit": "%"}, {"measurement": "extent of alopecia (grade), all rats", "setting": "Long Evans rats; cyclophosphamide regimen, after the first round of chemotherapy", "value": "did not exhibit any signs of alopecia"}, {"measurement": "protection from CIA", "setting": "Long Evans rats; cyclophosphamide, doxorubicin and cytarabine group", "value": 100, "unit": "%"}, {"measurement": "extent of alopecia (grade), all rats", "setting": "Long Evans rats; cyclophosphamide, doxorubicin and cytarabine regimen, after the first round", "value": "did not exhibit any signs of alopecia"}, {"measurement": "protection from CIA", "setting": "Long Evans rats; cyclophosphamide, paclitaxel and etoposide group", "value": 100, "unit": "%"}, {"measurement": "extent of alopecia (grade), all rats", "setting": "Long Evans rats; cyclophosphamide, paclitaxel and etoposide regimen, after the first round", "value": "did not exhibit any signs of alopecia"}, {"measurement": "protection from CIA", "setting": "Long Evans rats; doxorubicin, paclitaxel and etoposide group", "value": 100, "unit": "%"}, {"measurement": "extent of alopecia (grade), all rats", "setting": "Long Evans rats; doxorubicin, paclitaxel and etoposide regimen, after the first round", "value": "did not exhibit any signs of alopecia"}, {"measurement": "cyclophosphamide-induced alopecia", "setting": "Sprague Dawley rats", "value": "did not develop alopecia"}, {"measurement": "chemotherapy induced alopecia", "setting": "patients", "value": "diminished chemotherapy induced alopecia"}]}
